“And” between values parts separate entries of the source, which are not always exact repeats. Equal entries are not always repeated.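 In this assay, cells in 96-well plates receive the compound at five concentrations for 48 hours. Endpoints are linearly interpolated between the surrounding concentrations. The concentration for 50% growth inhibition is given as GI50.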 The source made the active and inactive calls. No stated cut-off is given here; in the data, active = GI50 up to about 1.1 µM and inactive = higher.
Columns and labels:
Experiment in all cases: NCI anticancer screen, dose series, 48 h
[1] = system: HOP-62
[2] = system: HOP-92
[3] = system: SK-MEL-5
[4] = system: SNB-75
[5] = system: UO-31
[6] = system: SNB-19
[7] = system: M14
[8] = system: NCI-H522
[9] = system: 786-0
[10] = system: UACC-62
[11] = system: NCI-H23
[12] = system: MOLT-4
[13] = system: EKVX
[14] = system: KM12
[15] = system: HCT-116
[16] = system: SF-539
[17] = system: CAKI-1
[18] = system: HCC 2998
[19] = system: DU-145

Structure (SMILES) | GI50 [1] | GI50 [2] | GI50 [3] | GI50 [4] | GI50 [5] | GI50 [6] | GI50 [7] | GI50 [8] | GI50 [9] | GI50 [10] | GI50 [11] | GI50 [12] | GI50 [13] | GI50 [14] | GI50 [15] | GI50 [16] | GI50 [17] | GI50 [18] | GI50 [19]
CC1=Nc2c(ccc3c2C(=O)c2ccccc2C3=O)NC(c2cccc3c2CCC3)C1 (stereo unspecified) | > 73.8 µM (inactive) | > 65 µM (inactive) | > 100 µM (inactive) | > 100 µM (inactive) | 4.72 µM (inactive) | > 100 µM (inactive) | > 92 µM (inactive) | > 23.1 µM (inactive) | > 100 µM (inactive) | > 100 µM (inactive) | > 100 µM (inactive) | 5.11 µM (inactive) | > 100 µM (inactive) | > 31.9 µM (inactive) | 66.2 µM (inactive) | > 100 µM (inactive) | 6.27 µM (inactive) | > 100 µM (inactive) | 
COc1ccc(C2c3cc4c(cc3OC(NNc3ccccc3)C2C)OCO4)cc1 (stereo unspecified) | 3.5 µM (inactive) | 19.5 µM (inactive) | 17.9 µM (inactive) | 22.6 µM (inactive) | 4.33 µM (inactive) | 40.7 µM (inactive) | 6.14 µM (inactive) | 2.77 µM (inactive) | 22.1 µM (inactive) | 4.92 µM (inactive) | 13.4 µM (inactive) | 3.15 µM (inactive) | 3.75 µM (inactive) | 2.91 µM (inactive) | 4.44 µM (inactive) | 2.36 µM (inactive) | 5.89 µM (inactive) | 1.82 µM (inactive) | 5.52 µM (inactive)
COc1ccc(-c2c(C#N)c(N)n(C3OC(CO)C(O)C(O)C3O)c(=S)c2C#N)cc1 (stereo unspecified) | > 100 µM (inactive) and 51.9 µM (inactive) | 20.2 µM (inactive) | > 100 µM (inactive) and 74 µM (inactive) | > 100 µM (inactive) | 82.2 µM (inactive) | > 100 µM (inactive) | > 100 µM (inactive) |  | > 100 µM (inactive) | > 100 µM (inactive) | > 100 µM (inactive) | > 100 µM (inactive) and 68.2 µM (inactive) | 66.2 µM (inactive) | > 100 µM (inactive) | > 100 µM (inactive) | > 100 µM (inactive) | > 100 µM (inactive) | > 100 µM (inactive) | > 100 µM (inactive)
Cn1cnc([N+](=O)[O-])c1Sc1nccn1-c1ccccc1 | > 100 µM (inactive) | 22.5 µM (inactive) | 69.2 µM (inactive) | 71.9 µM (inactive) | 22.3 µM (inactive) | > 100 µM (inactive) | 44.9 µM (inactive) | 11.6 µM (inactive) | > 100 µM (inactive) | 35.2 µM (inactive) | 29.9 µM (inactive) | 21.5 µM (inactive) | 44.7 µM (inactive) | > 100 µM (inactive) | 38 µM (inactive) | 68.2 µM (inactive) | 97.9 µM (inactive) | > 100 µM (inactive) | 
CCCC(OCC)(OCC)OCC | > 100 µM (inactive) | > 100 µM (inactive) | > 100 µM (inactive) | > 100 µM (inactive) | > 100 µM (inactive) | > 100 µM (inactive) | > 100 µM (inactive) | > 100 µM (inactive) | > 100 µM (inactive) | > 100 µM (inactive) | > 100 µM (inactive) | > 100 µM (inactive) | > 100 µM (inactive) | > 100 µM (inactive) | 27.5 µM (inactive) | > 100 µM (inactive) | > 100 µM (inactive) | > 100 µM (inactive) | 
NC(=S)NNC(=O)/C(=C/c1ccc(/C=C(\NC(=O)c2ccccc2)C(=O)NNC(N)=S)cc1)NC(=O)c1ccccc1 | > 100 µM (inactive) | > 100 µM (inactive) | 66.2 µM (inactive) | 30.4 µM (inactive) | > 100 µM (inactive) | > 100 µM (inactive) | > 100 µM (inactive) | 25.4 µM (inactive) | > 100 µM (inactive) | > 100 µM (inactive) | > 100 µM (inactive) | 13.8 µM (inactive) | > 100 µM (inactive) | > 100 µM (inactive) | 75 µM (inactive) | > 100 µM (inactive) | > 100 µM (inactive) | > 100 µM (inactive) | 
N#C/C(c1nc2ccccc2[nH]1)=c1\s/c(=C/c2ccccc2)c(=O)n1-c1ccccc1 | > 100 µM (inactive) | > 100 µM (inactive) | 81.8 µM (inactive) | > 100 µM (inactive) | > 100 µM (inactive) | > 100 µM (inactive) | > 100 µM (inactive) | > 100 µM (inactive) | > 100 µM (inactive) | > 100 µM (inactive) | > 100 µM (inactive) | 9.89 µM (inactive) | > 100 µM (inactive) | > 100 µM (inactive) | > 100 µM (inactive) | > 100 µM (inactive) | > 100 µM (inactive) | > 100 µM (inactive) | 
C[C@]12C=CC(=O)C=C1CC[C@H]1[C@@H]3C[C@@H](O)[C@](O)(C(=O)CO)[C@@]3(C)C[C@H](O)[C@@]12F [TRIAMCINOLONE] | > 100 µM (inactive) | > 100 µM (inactive) | > 100 µM (inactive) | > 100 µM (inactive) | > 100 µM (inactive) | > 100 µM (inactive) | > 100 µM (inactive) | > 100 µM (inactive) | > 100 µM (inactive) | > 100 µM (inactive) | > 100 µM (inactive) | > 100 µM (inactive) | > 100 µM (inactive) | > 100 µM (inactive) | > 100 µM (inactive) | > 100 µM (inactive) | > 100 µM (inactive) | > 100 µM (inactive) | 
O=C(Nc1nc2ccccc2n1Cc1ccc(Cl)cc1)NC12CC3CC(CC(C3)C1)C2 | 17.1 µM (inactive) | 19.9 µM (inactive) | 33.3 µM (inactive) | 7.74 µM (inactive) | 48 µM (inactive) | 24.9 µM (inactive) | 25 µM (inactive) | 16.1 µM (inactive) | 20.5 µM (inactive) | 17.3 µM (inactive) | 16.4 µM (inactive) | > 100 µM (inactive) | 32.7 µM (inactive) | 53.8 µM (inactive) | 19.4 µM (inactive) | 24.3 µM (inactive) | 34.7 µM (inactive) | > 100 µM (inactive) | 
COc1cc(Br)c(CC2=NCCc3cc(OC)c(OC)cc32)cc1OC | > 100 µM (inactive) | 1.64 µM (inactive) | 16.7 µM (inactive) | 36.3 µM (inactive) | 11.3 µM (inactive) | 48.8 µM (inactive) | 12.9 µM (inactive) | 16.9 µM (inactive) | 16.7 µM (inactive) | 7.13 µM (inactive) | 9.71 µM (inactive) | 15.8 µM (inactive) | 35.7 µM (inactive) | 20.9 µM (inactive) | 3.16 µM (inactive) | 11.7 µM (inactive) | 15.9 µM (inactive) | 16.4 µM (inactive) | 
CCC(C)C(N)C(=O)NC(CC(N)=O)C(=O)NC(CC(C)C)C(=O)NC(CCCCN)C(=O)NC(C)C(=O)NC(CC(C)C)C(=O)NC(C)C(=O)NC(C)C(=O)NC(CC(C)C)C(=O)NC(C)C(=O)NC(CCCCN)C(=O)NC(CCCCN)C(=O)NC(C(=O)NC(CC(C)C)C(N)=O)C(C)CC (stereo unspecified) | 2.55 µM (inactive) | 1.14 µM (inactive) | 6.53 µM (inactive) | 6.56 µM (inactive) | 18.1 µM (inactive) | 14.7 µM (inactive) | 2.48 µM (inactive) | 16.7 µM (inactive) | 6.56 µM (inactive) | 6.64 µM (inactive) | 14.7 µM (inactive) | 14.9 µM (inactive) | 8.05 µM (inactive) | 14.5 µM (inactive) | 15.6 µM (inactive) | 6.08 µM (inactive) | 8.3 µM (inactive) | > 42.2 µM (inactive) | 
O=[N+]([O-])c1ccc(OCCNc2cccc3ccccc23)cc1 | > 100 µM (inactive) | 94.2 µM (inactive) | 30.5 µM (inactive) | 89.7 µM (inactive) | 92.9 µM (inactive) | > 100 µM (inactive) | > 100 µM (inactive) | > 100 µM (inactive) | > 100 µM (inactive) | > 100 µM (inactive) | 30.6 µM (inactive) | 20.3 µM (inactive) | > 100 µM (inactive) | > 100 µM (inactive) | 42.8 µM (inactive) | > 100 µM (inactive) | > 100 µM (inactive) | 64.6 µM (inactive) | 
C=CCOc1cc2c(cc1C(C)c1ccc(OC)cc1)OCO2 (stereo unspecified) | 0.495 µM (active) |  | 0.601 µM (active) | 0.176 µM (active) | 0.583 µM (active) | 0.564 µM (active) | 0.67 µM (active) | 0.205 µM (active) | 0.655 µM (active) | 0.416 µM (active) | 0.807 µM (active) | 0.483 µM (active) |  | 0.372 µM (active) | 0.525 µM (active) | 0.333 µM (active) | 0.628 µM (active) | 0.887 µM (active) | 10.6 µM (inactive)
COc1ccc2c(c1OC)C[C@@H]1c3c(cc4c(c3-2)OCO4)CCN1C | 72.8 µM (inactive) | 12.3 µM (inactive) | 16.7 µM (inactive) | 17.1 µM (inactive) | 10.8 µM (inactive) | 42.9 µM (inactive) | 25.9 µM (inactive) | 19.9 µM (inactive) | 24.2 µM (inactive) | 15.2 µM (inactive) | 50.1 µM (inactive) | 24.3 µM (inactive) | 20.7 µM (inactive) | 28.8 µM (inactive) | 20.7 µM (inactive) | 19 µM (inactive) | 31.2 µM (inactive) | 21.3 µM (inactive) | 41.1 µM (inactive)
COC(=O)C(CC(=O)Nc1ccc(C)cc1)C(=O)C(=O)Nc1ccccc1C(C)C (stereo unspecified) | > 100 µM (inactive) | > 100 µM (inactive) | > 100 µM (inactive) | > 100 µM (inactive) | > 100 µM (inactive) | > 100 µM (inactive) | > 100 µM (inactive) | > 100 µM (inactive) | > 100 µM (inactive) | > 100 µM (inactive) | > 100 µM (inactive) | > 100 µM (inactive) | > 100 µM (inactive) | > 100 µM (inactive) | > 100 µM (inactive) | > 100 µM (inactive) | > 100 µM (inactive) | > 100 µM (inactive) | 
